Source: patent publication US20080051646A1, “Probe for cellular oxygen” (priority 2006, published 2008)
Where no end group is shown, it is not given here. PtCP = not defined here

Tests used:
Type in all cases: cell-based
Jurkat T cells = assay: Lifetime of cell-surface-bound WGA-PtCP probe on Victor2 time resolved reader; conditions: Jurkat cells loaded with WGA-PtCP probe; 1 μM; basal 25 μs
Method: Wheat germ agglutinin (WGA) at 1 mg/ml concentration in 0.1 M Na carbonate, pH 8.6 was labelled with the PtCP-NCS dye using a 20-molar excess of dye. After two hours of incubation at room temperature, the resulting conjugate was separated from the free dye as described in example 1 above. Jurkat T cells and human B cells were incubated with WGA-PtCP probe at 1 μM concentration for 30 min at 37° C. in RPMI medium, to achieve binding of the probe to glycoproteins on cell surface. After washing of loaded cells with medium, local oxygen concentration (at cell surface and within the cell) was assessed. and responses to effectors of respiration such as 1 μM FCCP were measured. Lifetimes of the cells loaded with WGA-PtCP probe was measured on a time resolved fluorescent reader Victor^2, using excitation at 340 nm excitation and 642 nm emission filters, and pairwise intensity readings at delay times 30 and 70 μs (at gate time 100 μs). Basal lifetime of resting Jurkat cells was recorded as 25 μs, moving to 32 μs upon the addition of FCCP (uncoupler of respiration). Under the same conditions, using the PtCP-BSA conjugate which had no ability to bind to the cells and remained in extracellular medium, intracellular oxygen gradients and responses to effectors were undetectable.

Jurkat T-cells = assay: Phosphorescence lifetime of PtCP-BSA probe in Jurkat cells on a fluorescent lifetime spectrometer; conditions: for change in intracellular probe phosphorescence lifetime after effector: Jurkat cells loaded with PtCP-BSA-Escort III probe, 1 μM, three minute intervals
Method: Jurkat T-cells were grown in RPMI medium supplemented with 10% FBS, 2 mM L-glutamine, 100 U/ml penicillin and 100 μg/ml streptomycin.
For loading, the PtCP-BSA based probe comprising PtCP-BSA conjugate formulated with Escort III (described in Example 1) was used. Probe solution was pre-warmed by incubating at 37° C for 15 min followed by addition of 100 μl of the probe solution to the cell culture dish containing 800 μl of serum free medium. The cells and probe solution were incubated for 5 hours in a 5% CO2 incubator at 37° C., cells were then washed with 1 ml of serum free medium three times.
Loading of the cells loaded with the PtCP-based probe(s) was initially assessed by measurement on a fluorescent lifetime spectrometer Cary Eclipse (Varian), both in the intracellular environment (i.e. after loading and washing of the cells) and in the extracellular medium (at the start of loading, no washing). […] The inhibitor blocks oxygen consumption and adjusts intracellular oxygen levels to air-saturated levels.
Jurkat T-cell lymphoma cells were grown under normal conditions and loaded with the PtCP-BSA-Escort III based probe (as described in Example 1) using the method described in Example 3. Following washing the basal level of intracellular oxygen was assessed by measuring the phosphorescence lifetime of the PtCP probe using a Cary Eclipse spectrofluorometer and analyzing phosphorescence decays using Origin™ software (single-exponential fits). Phosphorescence lifetimes of the intracellular probe in loaded cells were measured at three minute intervals following the addition of 1 μM valinomycin.

A549 cells = assay: Intracellular oxygen imaging of loaded cells treated with effector compounds
Method: (§1) Loading of the cells with the PtCPK-BSA and PdCPK-BSA based probes (as described in Example 2) was carried out in the same way as described in Example 3 for the PtCP-BSA probes (i.e. 5 h in serum-free medium for the Escort or 24 h in serum-rich medium for Endoporter). A549 and HeLa cells loaded with PtCPK-BSA and PdCPK-BSA probes were then washed and analyzed by fluorescence microscopy. Imaging experiments of cells loaded with the probes were carried out on an Olympus IX51 inverted fluorescence microscope equipped with 75 W Xenon Arc Lamp (Cairn), an Optoscan Monochromator (Cairn) and an Orca-ER CCD camera (Hamamatsu). Live cell imaging was carried out using an Olympus UplanFl 1.3 NA 100× oil-immersion objective. The images were analysed using Kinetic Imaging AQM Advanced software (Version 6). The PtCPK and PdCPK probes were imaged under excitation at wavelengths of 395 nm and 400 nm respectively collecting the phosphorescence emission using a 600 nm cut-off filter.
Adherent A549, HeLa and SH-SY5Y cells were grown under normal conditions. Cells were loaded with probes based on PtCPK-BSA and PdCPK-BSA and Escort III (described in Example 2), and treated with various effector compounds with known mechanisms of action on cell metabolism and cellular response to the effector compounds was observed under a fluorescent microscope.
The effect of Ca-channel agonist ryanodine (20 nM) on SH-SY5Y cells, with up-regulation of cell metabolism by inducing a release of Ca2+ from intracellular stores, is shown in FIG. 4. […] An approximately 40% drop in PtCPK phosphorescence was observed as the base rate of respiration was inhibited resulting in higher levels of intracellular oxygen emanating from O2 influx from the extracellular medium.
The specificity of the CMC response was confirmed by incubating A549 cells with an equimolar concentration of the ryanodine channel blocker procaine followed by CMC treatment. In this case, phosphorescence intensity increased by less than 10% after the introduction of CMC.

PC12 cells = assay: Mitochondria-targeted probes in loaded cells on the Victor reader
Method: The PtCP-BSA conjugate, synthesized as described in Example 1 was additionally labelled with a synthetic oligopeptide containing the following sequence: […]. The peptide comprises a mitochondria targeting sequence (according to http://psort.ims.u-tokyo.ac.jp), a terminal cysteine group was used for the conjugation. Labelling with the peptide was achieved by means of a heterobifunctional reagent—succinimide ester of maleimidopropionic acid. The PtCP-BSA conjugate was incubated with 10-molar excess of the reagent in 0.1 M phosphate buffer, pH 7.8 for 4 hours at room temperature, then separated on a PD-10 column in the same buffer. The peak of activated PtCP-BSA was collected, mixed with 10-molar excess of the peptide, incubated for further 6 hours. Finally, the PtCP-BSA-peptide conjugate was separated on a PD-10 column.
Alternatively, the peptide was conjugated directly to PtCP. The monofunctional maleimide derivative of PtCP was used, which reacts spontaneously with —SH groups on the peptide (terminal cysteins) to form stable covalent linkage. […]
Probes incorporating the PtCP-BSA-peptide and PtCP-peptide conjugates (successful labelling was confirmed by MALDI mass spectrometry) were formulated with Endoporter agent and used for cell loading as described in Examples 3 to 8. PC12 cells loaded with these probes produced high signals on the Victor reader.

HeLa cells = assay: Intracellular oxygen imaging of loaded cells treated with valinomycin; conditions: HeLa cells loaded with PtCPK-BSA or PdCPK-BSA; 1 μM
Method: as §1
Adherent A549, HeLa and SH-SY5Y cells were grown under normal conditions. Cells were loaded with probes based on PtCPK-BSA and PdCPK-BSA and Escort III (described in Example 2), and treated with various effector compounds with known mechanisms of action on cell metabolism and cellular response to the effector compounds was observed under a fluorescent microscope. […]

Compound: N#CC(C#N)=NNc1ccc(OC(F)(F)F)cc1 [FCCP]
- lifetime upon addition of uncoupler (Jurkat T cells): 32 μs

Compound: antimycin A
- probe lifetime after addition of inhibitor (Jurkat T-cells; Jurkat cells loaded with PtCP-BSA probe, basal 31 μs, lifetime decreases and levels off): ~25 μs
- change in intracellular probe phosphorescence lifetime after effector (Jurkat T-cells): slight drop
- drop in PtCPK phosphorescence (A549 cells; A549 cells loaded with PtCPK-BSA/Escort III, 2 μM): approximately 40%

Compound: ryanodine
- response of loaded cells, lower concentrations (A549 cells; A549 cells loaded with PtCPK, 2 nM and 20 nM): increased phosphorescence
- response of loaded cells, higher concentrations (A549 cells; A549 cells loaded with PtCPK, 200 nM and 2 μM): little oxygen uptake

Compound: Cc1cc(O)ccc1Cl [CMC, 4-chloro-meta-cresol]
- increase of phosphorescence intensity (A549 cells; A549 cells pre-incubated with equimolar procaine, then 500 μM CMC): less than 10%
- effect on the phosphorescence (A549 cells; respiring A549 cells loaded with PtCPK-BSA, 500 μM): pronounced effect

Compound: PtCP-peptide: PtCP-maleimide conjugated directly to peptide VLTPLLLRGLTGSARRLPVPRAKAC (VLTPLLLRGLTGSARRLPVPRAKAC(PtCP); reading uncertain)
- signals of loaded cells on the Victor reader (PC12 cells; formulated with Endoporter): high signals
- phosphorescence lifetimes of resting loaded cells compared with PtCP-BSA probe (PC12 cells; resting): higher

Compound: CC(C)[C@@H]1NC(=O)[C@H](C)OC(=O)[C@@H](C(C)C)NC(=O)[C@@H](C(C)C)OC(=O)[C@H](C(C)C)NC(=O)[C@H](C)OC(=O)[C@@H](C(C)C)NC(=O)[C@@H](C(C)C)OC(=O)[C@H](C(C)C)NC(=O)[C@H](C)OC(=O)[C@@H](C(C)C)NC(=O)[C@@H](C(C)C)OC1=O [valinomycin]
- change in intracellular probe phosphorescence lifetime after effector (Jurkat T-cells): increase in probe lifetime was significantly faster than in a control sample
- phosphorescence response to effector (A549 cells; A549 cells loaded with PtCPK-BSA or PdCPK-BSA, 1 μM): rapid and cell specific
- phosphorescence response to effector (HeLa cells): rapid and cell specific
